From patent US4170640A, “Antibiotic mixtures” (priority 1977, dated 1979)

Legend:
E. coli B [1] = experiment: Amplification of the antibacterial (cell-killing) activity of phleomycin in stationary phase cultures, viable cell counts; format: cell-based; conditions: concentration of optimum activity after phleomycin pretreatment (2 μg/ml, 30 min, 37°); 120 min treatment
Description: The ability of the compounds to potentiate the cell-killing effects of phleomycin was measured by the following procedure. Stationary phase cultures of E. coli B, with or without the compounds under test, were resuspended in growth medium containing phleomycin (2 μg/ml) and incubated at 37° for 30 minutes. The cells were then membrane filtered (0.45 μm pore size; 2.5 cms), washed with growth medium (20 μg/ml) and resuspended in growth medium (20 μg/ml) at 37° C. containing various concentrations, between 10^-10 M and 10^-2 M, of the compound under test. As a control, bacteria were exposed to the same range of concentrations of each compound but without the phleomycin pretreatment. To determine viable cell numbers aliquots were taken from each cell suspension after 120 minutes treatments, plated on agar medium and incubated overnight at 37° C. All operations with amplifying agents were carried out in near dark conditions.
Compounds were designated as active when the increase in activity with the combined treatment was greater than could be explained by the effects of the two compounds when administered separately.

Walker rat carcinoma 256 = experiment: Survival of rats bearing Walker rat carcinoma 256 ascites tumour, treated with phleomycin plus amplifier; format: in vivo, Sprague Dawley rats; conditions: for amplification of the activity of phleomycin (survival of tumour-bearing rats): doses as in Table 2
Description: Walker rat carcinoma 256 as the ascites form was passaged in female Sprague Dawley rats. […] Intraperitoneal injections of 0.1 ml (10^6 viable cells) of the suspension were then made into test groups of 6-8 male Sprague Dawley rats.
Phleomycin dissolved in phosphate-buffered saline was given to animals in the test groups as 0.1 ml intraperitoneal injections twice daily; each injection was followed by a 0.1 ml intraperitoneal injection of the prospective amplifier. The treatments were given for 5-10 days, at varying concentrations of the phleomycin and amplifier.
The method of evaluating the effectiveness of the various treatments was based on those used in the screening programme of the Drug Evaluation Branch, National Cancer Institute, National Institute of Health, Bethesda, Maryland, U.S.A. (Cancer Chemotherapy Reports, Vol. 3, No. 2, September 1972). Thus the effectiveness of the drug treatment was measured by the increased survival time, measured in days, of the treated animals over control ones which received no drugs. Dead animals were counted daily, and median survival times (MST) calculated for all groups. […] The ratios (test group median survival time) divided by (control group median survival time)× 100 (T/C) were calculated for all the test groups.

E. coli B [2] = experiment: Amplification of the antibacterial (cell-killing) activity of phleomycin in stationary phase cultures, viable cell counts; format: cell-based; conditions: envisaged from present studies; phleomycin at about 1 mg/l (or mg/kg)
[3] = Brilliant Green 640 MKD alone (phleomycin 0), ×2 daily
[4] = phleomycin 5 MKD + Brilliant Green 640 MKD, i.p. ×2 daily
[5] = phleomycin 10 MKD + Brilliant Green 640 MKD, i.p. ×2 daily
[6] = phleomycin 20 MKD + Brilliant Green 640 MKD, i.p. ×2 daily
[7] = Crystal Violet 0.5 MKD alone (phleomycin 0), twice daily from days 2 to 10
[8] = phleomycin 4 MKD + Crystal Violet 0.5 MKD, i.p. twice daily from days 2 to 10
[9] = Malachite Green 52 MKD alone (phleomycin 0), ×2 daily
[10] = phleomycin 8 MKD + Malachite Green 52 MKD, i.p. ×2 daily
[11] = Neutral Red 20 MKD alone (phleomycin 0), ×2 daily
[12] = phleomycin 8 MKD + Neutral Red 20 MKD, i.p. ×2 daily
[13] = phleomycin 16 MKD + Neutral Red 20 MKD, i.p. ×2 daily
[14] = phleomycin 32 MKD + Neutral Red 20 MKD, i.p. ×2 daily
[15] = Auramin 0 7.6 MKD alone (phleomycin 0), ×2 daily
[16] = phleomycin 8 MKD + Auramin 0 7.6 MKD, i.p. ×2 daily
[17] = 4,4'-bis(trimethylammonio)diphenylmethane dichloride 270 MKD alone (phleomycin 0), ×2 daily
[18] = phleomycin 4 MKD + 4,4'-bis(trimethylammonio)diphenylmethane dichloride 270 MKD, i.p. ×2 daily

C[N+](C)(C)c1ccc(-c2ccc([N+](C)(C)C)cc2)cc1.[Cl-].[Cl-] [4,4'-bis(trimethylammonio)diphenyl-dichloride]
Optimum Concentration tested (E. coli B [1]): 310 µM

CCN(CC)c1ccc(C(=C2C=CC(=[N+](CC)CC)C=C2)c2ccccc2)cc1.O=S(=O)([O-])O [Brilliant Green]
Optimum Concentration tested (E. coli B [1]): 9.6 µM
MST (Walker rat carcinoma 256; [3]): 9 days
T/C (Walker rat carcinoma 256; [3]): 112
amplification of the activity of phleomycin (survival of tumour-bearing rats) (Walker rat carcinoma 256): amplified the activity of phleomycin
MST (Walker rat carcinoma 256; [4]): 10 days
T/C (Walker rat carcinoma 256; [4]): 125
MST (Walker rat carcinoma 256; [5]): 11 days
T/C (Walker rat carcinoma 256; [5]): 138
MST (Walker rat carcinoma 256; [6]): 11 days
T/C (Walker rat carcinoma 256; [6]): 138

CC[n+]1c(-c2ccccc2)c2cc(N)ccc2c2ccc(N)cc21.[Br-] [Ethidium bromide]
Optimum Concentration tested (E. coli B [1]): 13 µM
adequate concentration of amplifier in conjunction with phleomycin (E. coli B [2]): 10^-4 molar

Cc1cc2nc3ccc(N(C)C)cc3[s+]c2cc1N.[Cl-] [Toluidine Blue]
Optimum Concentration tested (E. coli B [1]): 16 µM

CN(C)c1ccc(C(=C2C=CC(=[N+](C)C)C=C2)c2ccc(N(C)C)cc2)cc1 [Crystal Violet]
Optimum Concentration tested (E. coli B [1]): 2.4 µM
MST (Walker rat carcinoma 256; [7]): 12.5 days
T/C (Walker rat carcinoma 256; [7]): 104
amplification of the activity of phleomycin (survival of tumour-bearing rats) (Walker rat carcinoma 256): amplified the activity of phleomycin
MST (Walker rat carcinoma 256; [8]): > 30 days
T/C (Walker rat carcinoma 256; [8]): 250
adequate concentration of amplifier in conjunction with phleomycin (E. coli B [2]): 10^-7 molar

CN(C)c1ccc(C(=C2C=CC(=[N+](C)C)C=C2)c2ccccc2)cc1.[Cl-] [Malachite green]
Optimum Concentration tested (E. coli B [1]): 3 µM
MST (Walker rat carcinoma 256; [9]): 8 days
T/C (Walker rat carcinoma 256; [9]): 100
amplification of the activity of phleomycin (survival of tumour-bearing rats) (Walker rat carcinoma 256): amplified the activity of phleomycin
MST (Walker rat carcinoma 256; [10]): 16.5 days
T/C (Walker rat carcinoma 256; [10]): 206

CC[N+](CC)=c1ccc2nc3c(cc(N)c4ccccc43)oc-2c1 [Nile Blue]
Optimum Concentration tested (E. coli B [1]): 2.7 µM

CCN(CC)CCCC(C)Nc1c2ccc(Cl)cc2nc2ccc(OC)cc12 (stereo not shown) [Quinacrine]
Optimum Concentration tested (E. coli B [1]): 39 µM

CN(C)c1ccc2nc3ccc(=[N+](C)C)cc-3sc2c1.[Cl-] [Methylene Blue]
Optimum Concentration tested (E. coli B [1]): 13 µM

Cc1cc2nc3cc(C)c(N)cc3[n+](-c3ccccc3)c2cc1N.[Cl-] [Safranin T]
Optimum Concentration tested (E. coli B [1]): 14 µM

Cc1cc2nc3ccc(N(C)C)cc3nc2cc1N.Cl [Neutral Red]
Optimum Concentration tested (E. coli B [1]): 33 µM
enhancement of the ability of phleomycin to prolong the survival of rats carrying tumours (Walker rat carcinoma 256; Neutral Red 20 μg/kg/day with phleomycin at 8, 16 or 32 micrograms/kg/day): active
MST (Walker rat carcinoma 256; [11]): 11.0 days
T/C (Walker rat carcinoma 256; [11]): 79
MST (Walker rat carcinoma 256; [12]): 20 days
T/C (Walker rat carcinoma 256; [12]): 143
MST (Walker rat carcinoma 256; [13]): > 30 days
T/C (Walker rat carcinoma 256; [13]): > 214
MST (Walker rat carcinoma 256; [14]): > 30 days
T/C (Walker rat carcinoma 256; [14]): > 214

CN(C)c1ccc(C(=N)c2ccc(N(C)C)cc2)cc1.Cl [Auramin O]
Optimum Concentration tested (E. coli B [1]): 3.3 µM
MST (Walker rat carcinoma 256; [15]): 9.5 days
T/C (Walker rat carcinoma 256; [15]): 95
amplification of the activity of phleomycin (survival of tumour-bearing rats) (Walker rat carcinoma 256): amplified the activity of phleomycin
MST (Walker rat carcinoma 256; [16]): 18 days
T/C (Walker rat carcinoma 256; [16]): > 180

Methyl Violet
Optimum Concentration tested (E. coli B [1]): 1.6 µM

C[N+](C)(C)c1ccc2cc3ccc([N+](C)(C)C)cc3c(-c3c4cc([N+](C)(C)C)ccc4cc4ccc([N+](C)(C)C)cc34)c2c1.[Cl-].[Cl-].[Cl-].[Cl-] [2,2', 7,7'-tetrakis(trimethylammonio)-9,9'-dianthracene tetrachloride]
Optimum Concentration tested (E. coli B [1]): 50 µM

C[N+](C)(C)c1ccc(Cc2ccc([N+](C)(C)C)cc2)cc1 [4,4'-bis(trimethylammonio)diphenylmethane]
Optimum Concentration tested (E. coli B [1]): 29 µM
MST (Walker rat carcinoma 256; [17]): 8.0 days
T/C (Walker rat carcinoma 256; [17]): 100
amplification of the activity of phleomycin (survival of tumour-bearing rats) (Walker rat carcinoma 256): amplified the activity of phleomycin
MST (Walker rat carcinoma 256; [18]): 10.0 days
T/C (Walker rat carcinoma 256; [18]): 125
adequate concentration of amplifier in conjunction with phleomycin (E. coli B [2]): 10^-3 molar

CCNc1ccc2c(-c3ccccc3C(=O)O)c3ccc(=[N+](CC)CC)cc-3oc2c1.[Cl-] [Rhodamine G]
Optimum Concentration tested (E. coli B [1]): 120 µM

Brilliant Cresol Blue
Optimum Concentration tested (E. coli B [1]): 340 µM

CN(C)c1ccc2cc3ccc(=[N+](C)C)cc-3oc2c1.[Cl-] [Pyronin Y]
Optimum Concentration tested (E. coli B [1]): 170 µM

Nc1cc2nc3ccccc3oc-2cc1=O [2-aminophenoxazone]
Optimum Concentration tested (E. coli B [1]): 25 µM

CC[n+]1c(C=Cc2ccc(N(C)C)cc2)ccc2ccccc21.[Cl-] [2-p-dimethylaminostyryl-N-ethyl-quinolinium chloride]
Optimum Concentration tested (E. coli B [1]): 0.3 µM
